Laboratory results published in patent publication US20250230477A1, “A PROCESS FOR THE PREPARATION OF TETRAHYDROANTHRACENES FROM STREPTOMYCES SPP. AND ANTICANCER ACTIVITY THEREOF” (Council of Scientific and Industrial Research, priority 2021, published 2025).
pIC50: −log10 of the molar value.

Legend:
Staphylococcus aureus = experiment: MIC, microtiter broth dilution; format: cell-based; details: dilutions 2-500 μg/ml, overnight 37° C.
Description: (§1) The minimum inhibitory concentrations (MIC) of purified compound showing significant zones of inhibition in the preliminary antimicrobial assay using agar well diffusion method were evaluated. MIC assay was carried out by a microtiter broth dilution method with some modifications. Stock solution of each pathogen was prepared in normal saline solution i.e. 0.85% NaCl (w/v) at a concentration of 10^8 cells/ml and finally diluted with respective growth media to give approximately 10^5 CFU/ml for all organisms. Different dilutions of compound was prepared (2-500 μg/ml) by serial dilutions. 100 μl of each concentration (2-500 μg/ml) of the compound was loaded onto each well and was mixed with 100 μl of diluted pathogens containing 10^5 CFU/ml. […] The microtitre plates were then incubated overnight at 37° C. for bacterial pathogens and 28° C. for fungal pathogens and were analysed after incubation.

Micrococcus luteus = experiment: MIC, microtiter broth dilution; format: cell-based; details: dilutions 2-500 μg/ml, overnight 37° C.
Description: as §1

Bacillus cereus = experiment: MIC, microtiter broth dilution; format: cell-based; details: dilutions 2-500 μg/ml, overnight 37° C.
Description: as §1

Bacillus subtilis = experiment: MIC, microtiter broth dilution; format: cell-based; details: dilutions 2-500 μg/ml, overnight 37° C.
Description: as §1

MTT cytotoxicity = format: cell-based; details: human, FR2 cells, 100 μM concentration range
Description: (§2) 5×10^3 cells were seeded/well in a 96 well plate and treated with Compounds (1-3) for 48 hours with 100 μM concentration range to a panel of cancer cell lines. After 44 hour MTT with final concentration of 0.5 mg/ml were added to cells and incubated for 4 hour at 37° C. until formazon crystals are formed. MTT was removed and formazon crystals were lysed by DMSO for 30 minutes at 37° C., the absorbance was measured at 570 nm and the IC50 values were calculated using graph pad prism.

MDA-MB-231 = experiment: MTT cytotoxicity; format: cell-based; details: Homo sapiens; MDA-MB-231, MTT, 48 hours, 100 μM concentration range
Description: as §2

HCT-116 [1] = experiment: MTT cytotoxicity; format: cell-based; details: Homo sapiens; HCT-116, MTT, 48 hours, 100 μM concentration range
Description: as §2

MCF-7 [2] = experiment: MTT cytotoxicity; format: cell-based; details: Homo sapiens, MCF7; MCF-7, MTT, 48 hours, 100 μM concentration range
Description: as §2

Panc-1 = experiment: MTT cytotoxicity; format: cell-based; details: Homo sapiens; Panc-1, MTT, 48 hours, 100 μM concentration range
Description: as §2

A549 = experiment: MTT cytotoxicity; format: cell-based; details: Homo sapiens, 48 hours, 100 μM concentration range
Description: as §2

MiaPaca-2 [3] = experiment: MTT cytotoxicity; format: cell-based; details: Homo sapiens, MIA PaCa-2; MiaPaca-2, MTT, 48 hours, 100 μM concentration range
Description: as §2

HT-29 [4] = experiment: MTT cytotoxicity; format: cell-based; details: Homo sapiens; HT-29, MTT, 48 hours, 100 μM concentration range
Description: as §2

PC3 = experiment: MTT cytotoxicity; format: cell-based; details: Homo sapiens, PC-3, 48 hours, 100 μM concentration range
Description: as §2

BCL-2 = experiment: Western blotting; format: cell-based; details: HCT-116 and MCF-7 cells, 48 h
Description: (§3) FIG. 5 Illustrates effect of setomimycin (Compound-3) pro-proliferative and anti-apoptotic protein targets in cancer cells: (A-B) Immunoblot analysis of ERK, p-MEK, Par-4, BCL-2 and β-actin in HCT-116 and MCF-7 cells treated with setomimycin for 48 h. (C-D) Densitometry analysis showing relative protein expression for the western blots presented Strong active potential of setomimycin against tumor cell proliferation and migration at nearby concentration of IC50 values was depicted by MTT data. Further, molecular docking studies predicted the strong affinity of setomimycin targeting MEK pathway. ERK and MEK are the major signaling pathways regulating cancer cell proliferation, differentiation and apoptosis. Therefore, Western blotting was carried out to check the effects of Setomimycin on ERK and MEK proteins.

ERK = experiment: Western blotting; format: cell-based; details: HCT-116 and MCF-7 cells, 48 h
Description: as §3

Par-4 = experiment: Western blotting; format: cell-based; details: HCT-116 and MCF-7 cells, 48 h
Description: as §3

Phospho MEK = experiment: Western blotting; format: cell-based; details: HCT-116 and MCF-7 cells, 48 h, increasing concentration
Description: as §3

HCT-116 [5] = experiment: Scratch assay (migration); format: cell-based; details: HCT-116, concentrations within the range of IC50
Description: (§4) Scratch assay was performed in the panel of cancer cell lines with varying degree of invasive and migratory capabilities as shown in FIG. 4. Our results unveiled that setomimycin inhibited the migratory potential of all the cell lines treated with different concentration of setomimycin within the range of their IC50 values. […] 5×10^5 cells were seeded onto 6 well plate and grown upto more than 90% confluency. After the proper attachment of cells wounds were created with the help of a 20-200 μL sterile pipette tip. Subsequently the cells were treated with indicated concentration of setomimycin and vehicle (DMSO). The images were taken under inverted microscope at 20× magnification.

MCF-7 [6] = experiment: Scratch assay (migration); format: cell-based; details: MCF-7, concentrations within the range of IC50
Description: as §4

HT-29 [7] = experiment: Scratch assay (migration); format: cell-based; details: HT-29, concentrations within the range of IC50
Description: as §4

HCT-116 [8] = experiment: Transwell invasion assay; format: cell-based; details: HCT-116, 48 hours, increasing concentration
Description: (§5) The above results depict significant antiproliferative effects of setomimycin in different cell lines near IC50 values. Transwell invasion assay was performed to check the anti-invasive properties of setomimycin. […] (A-B) 1.2×10^6 HCT-116 and MCF-7 cells were seeded in the upper chamber of inserts in serum free medium and treated with indicated concentration of setomimycin for 48 hours. (After 48 hours the invaded cells from lower insert were fixed with ice cold methanol and stained with 0.1% crystal violet for 20-30 minutes. After staining the inserts were washed with dH2O thoroughly and cells from three different fields in each treated condition were counted and photographed under an inverted microscope (20× magnifications). (C-D) Bar graph representing the number of invaded cells (n=3, error bars indicate ±SD).

MCF-7 [9] = experiment: Transwell invasion assay; format: cell-based; details: MCF-7, 48 hours, increasing concentration
Description: as §5

[10] = test system: Gram positive bacteria i.e. S. aureus, B. subtilis, B. cereus, and M. smegmatis; details: literature 1978; cited from earlier work
Sarcoma-180 = Sarcoma-180 mouse solid tumor model, 200 mg/kg per day for seven days; cited from earlier work
HCT-116 [11] = experiment: Colony formation assay; format: cell-based; details: HCT-116, concentrations nearby the IC50, 5 days
Description: (§6) Colony formation assay was performed to further certify the antiproliferative properties of setomimycin in four different cancer cell lines viz. HT-29, MiaPaca-2, HCT-116 and MCF-7. Cells were seeded onto 6 well plates at seeding density 1×10^3 fells/well and treated with increasing concentration of setomimycin nearby the IC50 values for 5 days. Upon termination the cells were stained with 0.1% crystal violet for 20-30 minutes and washed with dH2O thoroughly. The images were taken from plates with NIKON camera (D3100). Average colonies (n=3) were quantified from different fields. Bar graphs represent the number of colonies (n=3, error bars indicate ±SD).

MCF-7 [12] = experiment: Colony formation assay; format: cell-based; details: MCF-7, concentrations nearby the IC50, 5 days
Description: as §6

HT-29 [13] = experiment: Colony formation assay; format: cell-based; details: HT-29, concentrations nearby the IC50, 5 days
Description: as §6

MiaPaca-2 [14] = experiment: Colony formation assay; format: cell-based, human; details: MiaPaca-2, concentrations nearby the IC50, 5 days
Description: as §6

MiaPaca-2 [15] = experiment: Scratch assay (migration); format: cell-based, human; details: MiaPaca-2, concentrations within the range of IC50
Description: as §4

| Compound | Minimum Inhibitory Concentration (Staphylococcus aureus) | Minimum Inhibitory Concentration (Micrococcus luteus) | Minimum Inhibitory Concentration (Bacillus cereus) | Minimum Inhibitory Concentration (Bacillus subtilis) | IC50 at 48 h (MTT cytotoxicity) | pIC50 (MDA-MB-231) | pIC50 (HCT-116 [1]) | pIC50 (MCF-7 [2]) | pIC50 (Panc-1) | pIC50 (A549) | pIC50 (MiaPaca-2 [3]) | pIC50 (HT-29 [4]) | pIC50 (PC3) | other results |
| --- | --- | --- | --- | --- | --- | --- | --- | --- | --- | --- | --- | --- | --- | --- |
| CC(=O)[C@H]1c2cc3cccc(O)c3c(O)c2C(=O)C[C@]1(C)O [Compound-1] | 25 | 6 | 12 | 12 | 48.7 µM | 4.87 | 4.98 | 5.02 | 4.81 | 4.41 | 4.90 | 5.06 | 4.83 | – |
| CC(=O)[C@H]1c2c(c(O)c3c(O)cccc3c2-c2c3c(c(O)c4c(O)cccc24)C(=O)C[C@](C)(O)[C@H]3C(C)=O)C(=O)C[C@]1(C)O [Compound-2] | 12 | 4 | 6 | 6 | 62.3 µM | 4.90 | 4.72 | 4.95 | 4.67 | 4.41 | 5.08 | 4.81 | 4.76 | – |
| CC(=O)[C@@H]1C(C)=CC(=O)c2c1c(-c1c3c(c(O)c4c(O)cccc14)C(=O)C[C@](C)(O)[C@H]3C(C)=O)c1cccc(O)c1c2O [Compound-3, Setomimycin] | 8 | 8 | 4 | 16 | 53.3 µM | 5.12 | 5.28 | 5.16 | 4.32 | 4.94 | 5.34 | 5.38 | 5.15 | BCL-2 (antiapoptotic protein) expression, Western blot (BCL-2): downregulated; ERK protein expression, Western blot (ERK): downregulation; Par-4 (pro-apoptotic protein) expression, Western blot (Par-4): upregulated; Phospho MEK expression, Western blot (Phospho MEK): down regulated; Cell migration, scratch assay (HCT-116 [5]): inhibited the cell migration; Cell migration, scratch assay (MCF-7 [6]): inhibited the cell migration; Cell migration, scratch assay (HT-29 [7]): inhibited the cell migration; Invasion of cells, transwell (HCT-116 [8]): significantly inhibited; Invasion of cells, transwell (MCF-7 [9]): significantly inhibited; Activity against Gram positive bacteria [10]: active; Tumor growth (Sarcoma-180): reduce tumor growth; Antiproliferative effect, colony formation (HCT-116 [11]): promising results near the IC50 values; Antiproliferative effect, colony formation (MCF-7 [12]): promising results near the IC50 values; Antiproliferative effect, colony formation (HT-29 [13]): promising results near the IC50 values; Antiproliferative effect, colony formation (MiaPaca-2 [14]): promising results near the IC50 values; Cell migration, scratch assay (MiaPaca-2 [15]): inhibited the cell migration |
